# Data as given in patent publication US8952024B2, “Herbicidal pyrimidone derivatives” (E I du Pont de Nemours and Company, priority 2009, dated 2015).
# Experiments:
# Experiment in all cases: Test B pre-/postemergence plant response
# Assay type in all cases: in vivo
# [1] = tested on: ragweed (common ragweed, Ambrosia elatior)
# In short: (§1)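 Each species received compound formulated in non-phytotoxic solvent with surfactant, either at planting into a loam and sand blend or as a foliar spray once plants reached 2 to 18 cm in peat-based medium. Plants stayed in the greenhouse 13 to 15 days before visual evaluation against controls, scored 0 (no effect) to 100 (complete control).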
# soybean (Glycine max) = tested on: soybean (Glycine max)
# In short: as §1
# [2] = tested on: large crabgrass (Digitaria sanguinalis)
# In short: as §1
# [3] = tested on: lambsquarters (Chenopodium album)
# In short: as §1
# [4] = tested on: johnsongrass (Sorghum halepense)
# In short: as §1
# [5] = tested on: downy bromegrass (Bromus tectorum)
# In short: as §1
# [6] = tested on: yellow nutsedge (Cyperus esculentus)
# In short: as §1
# [7] = tested on: velvetleaf (Abutilon theophrasti)
# In short: as §1
# [8] = tested on: woolly cupgrass (Eriochloa villosa)
# In short: as §1
# [9] = tested on: wheat (Triticum aestivum)
# In short: as §1
# corn (Zea mays) = tested on: corn (Zea mays)
# In short: as §1
# [10] = tested on: Surinam grass (Brachiaria decumbens)
# In short: as §1
# kochia (Kochia scoparia) = conditions: Postemergence; for Plant response rating, Kochia: scale 0 (no effect) to 100 (complete control)
# In short: as §1
# [11] = tested on: pigweed (Amaranthus retroflexus)
# In short: as §1
# wild oat (Avena fatua) = tested on: wild oat (Avena fatua)
# In short: as §1
# [12] = tested on: blackgrass (Alopecurus myosuroides)
# In short: as §1
# [13] = tested on: Italian ryegrass (Lolium multiflorum)
# In short: as §1
# [14] = tested on: goosegrass (Eleusine indica)
# In short: as §1
# [15] = 250 g ai/ha, Preemergence, 0 to 100 scale
# [16] = Postemergence, 62 g ai/ha, scale 0 (no effect) to 100 (complete control), 13 to 15 days
# [17] = Postemergence, 125 g ai/ha, visual rating after 13 to 15 days, scale 0 (no effect) to 100 (complete control)
# [18] = Preemergence, 31 g ai/ha, scale 0 to 100 (0 no effect, 100 complete control)
# [19] = Preemergence, 125 g ai/ha, 0 to 100 scale
# [20] = Postemergence, 31 g ai/ha, scale 0 to 100 (0 no effect, 100 complete control)
# [21] = Postemergence, 250 g ai/ha, scale 0 to 100
# [22] = Preemergence, 62 g ai/ha, scale 0 to 100, 0 no effect, 100 complete control
compound,measurement,setting,value
O=C1CCCC(O)=C1C(=O)c1cnc(-c2ccccc2)n(-c2ccccc2Br)c1=O [Compound 37],"Plant response rating, Ragweed",[1]; [15],98
same,"Plant response rating, Ragweed",[1]; [16],80
same,"Plant response rating, Ragweed",[1]; [17],95
same,"Plant response rating, Ragweed",[1]; [18],0
same,Ragweed plant response rating,[1]; [19],65
same,"Plant response rating, Soybean",soybean (Glycine max); [15],35
same,"Plant response rating, Soybean",soybean (Glycine max); [16],80
same,"Plant response rating, Soybean",soybean (Glycine max); [17],95
same,"Plant response rating, Soybean",soybean (Glycine max); [18],0
same,Soybean plant response rating,soybean (Glycine max); [19],0
same,"Plant response rating, Crabgrass, Large",[2]; [15],100
same,"Plant response rating, Crabgrass, Large",[2]; [20],70
same,"Plant response rating, Crabgrass, Large",[2]; [16],75
same,"Plant response rating, Crabgrass, Large",[2]; [17],85
same,"Crabgrass, Large plant response rating",[2]; [21],90
same,"Plant response rating, Crabgrass, Large",[2]; [18],0
same,"Plant response rating, Crabgrass, Large",[2]; [22],0
same,"Crabgrass, Large plant response rating",[2]; [19],10
same,"Plant response rating, Lambsquarters",[3]; [15],100
same,"Plant response rating, Lambsquarters",[3]; [16],98
same,"Plant response rating, Lambsquarters",[3]; [17],98
same,Lambsquarters plant response rating,[3]; [21],100
same,"Plant response rating, Lambsquarters",[3]; [18],95
same,"Plant response rating, Lambsquarters",[3]; [22],98
same,Lambsquarters plant response rating,[3]; [19],100
same,"Plant response rating, Johnsongrass",[4]; [15],90
same,"Plant response rating, Johnsongrass",[4]; [16],40
same,"Plant response rating, Johnsongrass",[4]; [17],60
same,Johnsongrass plant response rating,[4]; [21],85
same,"Plant response rating, Johnsongrass",[4]; [18],0
same,"Plant response rating, Johnsongrass",[4]; [22],0
same,Johnsongrass plant response rating,[4]; [19],45
same,"Plant response rating, Bromegrass, Downy",[5]; [15],0
same,"Plant response rating, Bromegrass, Downy",[5]; [20],0
same,"Plant response rating, Bromegrass, Downy",[5]; [16],10
same,"Plant response rating, Bromegrass, Downy",[5]; [17],15
same,"Bromegrass, Downy plant response rating",[5]; [21],45
same,"Plant response rating, Bromegrass, Downy",[5]; [18],0
same,"Plant response rating, Bromegrass, Downy",[5]; [22],0
same,"Bromegrass, Downy plant response rating",[5]; [19],0
same,"Plant response rating, Nutsedge, Yellow",[6]; [15],90
same,"Plant response rating, Nutsedge, Yellow",[6]; [16],15
same,"Plant response rating, Nutsedge, Yellow",[6]; [17],25
same,"Plant response rating, Nutsedge, Yellow",[6]; [18],0
same,"Nutsedge, Yellow plant response rating",[6]; [19],20
same,"Plant response rating, Velvetleaf",[7]; [15],98
same,"Plant response rating, Velvetleaf",[7]; [16],80
same,"Plant response rating, Velvetleaf",[7]; [17],95
same,"Plant response rating, Velvetleaf",[7]; [18],0
same,Velvetleaf plant response rating,[7]; [19],20
same,"Plant response rating, Cupgrass, Woolly",[8]; [15],70
same,"Plant response rating, Cupgrass, Woolly",[8]; [20],55
same,"Plant response rating, Cupgrass, Woolly",[8]; [16],65
same,"Plant response rating, Cupgrass, Woolly",[8]; [17],75
same,"Cupgrass, Woolly plant response rating",[8]; [21],100
same,"Plant response rating, Cupgrass, Woolly",[8]; [18],0
same,"Plant response rating, Cupgrass, Woolly",[8]; [22],0
same,"Cupgrass, Woolly plant response rating",[8]; [19],10
same,"Plant response rating, Wheat",[9]; [15],0
same,"Plant response rating, Wheat",[9]; [16],0
same,"Plant response rating, Wheat",[9]; [17],0
same,"Plant response rating, Wheat",[9]; [18],0
same,Wheat plant response rating,[9]; [19],0
same,"Plant response rating, Corn",corn (Zea mays); [15],0
same,"Plant response rating, Corn",corn (Zea mays); [20],0
same,"Plant response rating, Corn",corn (Zea mays); [16],15
same,"Plant response rating, Corn",corn (Zea mays); [17],60
same,Corn plant response rating,corn (Zea mays); [21],75
same,"Plant response rating, Corn",corn (Zea mays); [18],0
same,"Plant response rating, Corn",corn (Zea mays); [22],0
same,Corn plant response rating,corn (Zea mays); [19],0
same,"Plant response rating, Surinam Grass",[10]; [15],100
same,"Plant response rating, Surinam Grass",[10]; [16],70
same,"Plant response rating, Surinam Grass",[10]; [17],75
same,"Plant response rating, Surinam Grass",[10]; [18],0
same,Surinam Grass plant response rating,[10]; [19],55
same,"Plant response rating, Kochia","kochia (Kochia scoparia); 62 g ai/ha, 13 to 15 days",0
same,"Plant response rating, Kochia","kochia (Kochia scoparia); 125 g ai/ha, visual rating after 13 to 15 days",15
same,Kochia plant response rating,"kochia (Kochia scoparia); 250 g ai/ha, scale 0 to 100",65
same,"Plant response rating, Pigweed",[11]; [15],100
same,"Plant response rating, Pigweed",[11]; [16],85
same,"Plant response rating, Pigweed",[11]; [17],98
same,"Plant response rating, Pigweed",[11]; [18],100
same,Pigweed plant response rating,[11]; [19],100
same,"Plant response rating, Oat, Wild",wild oat (Avena fatua); [15],10
same,"Plant response rating, Oat, Wild",wild oat (Avena fatua); [16],10
same,"Plant response rating, Oat, Wild",wild oat (Avena fatua); [17],40
same,"Plant response rating, Oat, Wild",wild oat (Avena fatua); [18],0
same,"Oat, Wild plant response rating",wild oat (Avena fatua); [19],0
same,"Plant response rating, Blackgrass",[12]; [15],10
same,"Plant response rating, Blackgrass",[12]; [20],0
same,"Plant response rating, Blackgrass",[12]; [16],0
same,"Plant response rating, Blackgrass",[12]; [17],5
same,Blackgrass plant response rating,[12]; [21],30
same,"Plant response rating, Blackgrass",[12]; [18],0
same,"Plant response rating, Blackgrass",[12]; [22],0
same,Blackgrass plant response rating,[12]; [19],5
same,"Plant response rating, Ryegrass, Italian",[13]; [15],0
same,"Plant response rating, Ryegrass, Italian",[13]; [16],0
same,"Plant response rating, Ryegrass, Italian",[13]; [17],5
same,"Plant response rating, Ryegrass, Italian",[13]; [18],0
same,"Ryegrass, Italian plant response rating",[13]; [19],0
same,"Plant response rating, Goosegrass",[14]; [15],100
same,"Plant response rating, Goosegrass",[14]; [16],85
same,"Plant response rating, Goosegrass",[14]; [17],85
same,Goosegrass plant response rating,[14]; [21],95
same,"Plant response rating, Goosegrass",[14]; [18],0
same,Goosegrass plant response rating,[14]; [19],80
